{"source": "patent US10245240B2", "about": "“Treatment of prostate carcinoma” (Pellficure Pharmaceuticals, Inc., priority 2010, dated 2019)", "key": {"[1]": {"system": "PTEN-P2/GFP mouse cancer cells", "test": "Dose response plumbagin in PTEN-P2/GFP cells, cell counting with or without DHT", "type": "cell-based", "settings": "for % control / Average % control: 24 hours; for Average % control: mean of two experiments", "experimental": "Cell counting: Cells in 12-well plates are washed once with PBS, detached using Trypsin, and transferred to a suspension vial in a final volume of 10 ml PBS. Cells are counted using a COULTER™ Multisizer II instrument (Beckman Coulter Inc., Hialeah, Fla.) gated for the appropriate cell size and corrected for particulate debris.\nPTEN-P2/GFP mouse cancer cells were placed in androgen withdrawal medium in the presence or absence of DHT (dihydrotestosterone) at a final concentration of 10^−8 M. Plumbagin was added at the indicated concentrations for 24 hours. The absence of DHT simulates surgical or chemical castration. Cells were trypsinized and counted using a Cell Coulter counter Multisizer II, which excludes debris. Results represent cell numbers as percent of control (in which the number of cells in the absence of drug is 100%).\nAndrogen withdrawal medium: DMEM high-glucose phenol-red free, with the following additives: 10% charcoal-treated Fetal Bovine Serum, 25 ug/ml bovine pituitary extract, 5 ug/ml insulin, 6 ng/ml EGF recombinant."}, "PTEN-P2/GFP tumor": {"system": "PTEN-P2/GFP tumor", "test": "In vivo effect of plumbagin combined with castration, pseudo-orthotopic chamber model (Example 5)", "set-up": "species or system nude mice", "experimental": "Animal model and surgical techniques: Animal experiments have been approved as appropriate. All surgical procedures are performed in a sterile laminar flow hood. Dorsal skinfold chambers and surgical instruments are autoclaved before use. Saline used to keep tissue moist during surgical preparation is mixed with gentamicin ([…]).\nMale Nude mice (25-35 g body weight) are anesthetized (7.3 mg ketamine hydrochloride and 2.3 mg xylazine/100 g body weight, i.p.) and placed on a heating pad. Two symmetrical titanium frames are implanted into a dorsal skinfold, so as to sandwich the extended double layer of skin. A 15 mm full thickness circular layer is excised. The underlying muscle (M. cutaneous max.) and subcutaneous tissues are covered with a glass coverslip incorporated in one of the frames. After a recovery period of 2-3 days, prostate tissue and cancer cell spheroids are carefully placed in the chamber. Small circular Band Aids are applied on the backside of the chamber after surgery to prevent scratching. Before surgery, Buprenorphine (0.1 mg/kg) will be given IP. After surgery Meloxicam will be given in the drinking water for 4 days Meloxicam (5.0 mg/ml), is added at 35 μl per 100 ml of water to be medicated.\nPreparation of stroma: A male donor mouse is euthanized and the anterior prostate tissue is excised, put in a Petri dish with antibiotics (gentamicin 50 μl/ml), and minced with fine scissors into small pieces (<1 mm^2) for implantation.\nPreparation of tumor spheroids: Liquid overlay plates are generated using 1% Agarose melted in DMEM that is added to round-bottom 96-well plates (50 ul/well). […] Viability is determined using Trypan blue. […]. The size of the implanted spheroid can be determined precisely to minimize variations between animals. […]\nIntravital microscopy: Fluorescence microscopy is performed using a Mikron Instrument Microscope equipped with epi-illuminator and video-triggered stroboscopic illumination from a xenon arc (MV-7600, EG&G). […]"}, "fibrosarcomas": {"system": "fibrosarcomas", "settings": "cited from earlier work"}, "hepatoma": {"system": "hepatoma", "settings": "in vivo; cited from earlier work"}, "[2]": {"system": "hormone-refractory prostate cancer", "settings": "Aziz et al., Cancer Res. 2008; cited from earlier work"}, "[3]": {"system": "PTEN-P2/GFP prostate cancer cells", "test": "Effect of naphthoquinone analogs on PTEN-P2/GFP cell proliferation (CellTiter96 formazan-based viability assay)", "settings": "Mus musculus, 24 h", "description": "Cell culture: PTEN-P2/GFP are cells that stably express histone H2B-GFP fusion protein.\nCells are grown in DMEM medium containing 10% FBS, 2 mM L-glutamine, 100 U/ml penicillin/100 μg/ml streptomycin, insulin-selenium-transferrin (5 μg/ml insulin), and DHT 10^−8 M final. Androgen withdrawal is achieved by keeping the cells in phenol red-free DMEM medium containing 10% charcoal-treated FBS and the same supplements as in the normal medium except for DHT. Cells are maintained in a humidified incubator at 37° C. and 5% CO2. G418 (100 μg/ml) is added to maintain stable expression of H2B-GFP.\nPTEN-P2/GFP prostate cancer cells were plated at a density of 8000 cells/well in 96-well plates (triplicates) in growing medium containing 10% Fetal Bovine Serum and DHT. The next day, increasing concentrations of a naphthoquinone analog (diluted from 10 mM DMSO stock solutions) were incubated for 24 hrs. Cell viability was determined by the formazan-based cytotoxicity assay “CellTiter96Aquaeous nonradioactive proliferation assay” (Promega)."}}}
{"compound": "CC1=CC(=O)c2c(O)cccc2C1=O", "note": "[Plumbagin, 5-hydroxy-2-methylnaphthalene-1,4-dione]", "values": [{"measurement": "efficiency of plumbagin with simulated castration (no DHT) versus plumbagin alone", "setting": "[1]; in vitro, PTEN-P2/GFP cells", "result": "more efficient than treatment with plumbagin alone"}, {"measurement": "% control", "setting": "[1]; noDHT, 1 μM plumbagin, first experiment", "result": 73.70, "unit": "%"}, {"measurement": "Average % control", "setting": "[1]; noDHT, 1 μM plumbagin", "result": 84.83, "unit": "%"}, {"measurement": "% control", "setting": "[1]; noDHT, 1 μM plumbagin, second experiment column", "result": 95.96, "unit": "%"}, {"measurement": "% control", "setting": "[1]; noDHT, 2 μM plumbagin, first experiment", "result": 42.90, "unit": "%"}, {"measurement": "Average % control", "setting": "[1]; noDHT, 2 μM plumbagin", "result": 40.02, "unit": "%"}, {"measurement": "% control", "setting": "[1]; noDHT, 2 μM plumbagin, second experiment column", "result": 37.14, "unit": "%"}, {"measurement": "% control", "setting": "[1]; noDHT, 4 μM plumbagin, first experiment", "result": 10.12, "unit": "%"}, {"measurement": "Average % control", "setting": "[1]; noDHT, 4 μM plumbagin", "result": 5.84, "unit": "%"}, {"measurement": "% control", "setting": "[1]; noDHT, 4 μM plumbagin, second experiment column", "result": 1.57, "unit": "%"}, {"measurement": "% control", "setting": "[1]; noDHT, 8 μM plumbagin, first experiment", "result": 0.45, "unit": "%"}, {"measurement": "Average % control", "setting": "[1]; noDHT, 8 μM plumbagin", "result": 0.33, "unit": "%"}, {"measurement": "% control", "setting": "[1]; noDHT, 8 μM plumbagin, second experiment column", "result": 0.22, "unit": "%"}, {"measurement": "% control", "setting": "[1]; with DHT, 1 μM plumbagin, first experiment", "result": 106.93, "unit": "%"}, {"measurement": "Average % control", "setting": "[1]; with DHT, 1 μM plumbagin", "result": 84.11, "unit": "%"}, {"measurement": "% control", "setting": "[1]; with DHT, 1 μM plumbagin, second experiment column", "result": 61.29, "unit": "%"}, {"measurement": "% control", "setting": "[1]; with DHT, 2 μM plumbagin, first experiment", "result": 94.18, "unit": "%"}, {"measurement": "Average % control", "setting": "[1]; with DHT, 2 μM plumbagin", "result": 56.67, "unit": "%"}, {"measurement": "% control", "setting": "[1]; with DHT, 2 μM plumbagin, second experiment column", "result": 19.16, "unit": "%"}, {"measurement": "% control", "setting": "[1]; with DHT, 4 μM plumbagin, first experiment", "result": 22.62, "unit": "%"}, {"measurement": "Average % control", "setting": "[1]; with DHT, 4 μM plumbagin", "result": 13.76, "unit": "%"}, {"measurement": "% control", "setting": "[1]; with DHT, 4 μM plumbagin, second experiment column", "result": 4.89, "unit": "%"}, {"measurement": "% control", "setting": "[1]; with DHT, 8 μM plumbagin, first experiment", "result": 0.85, "unit": "%"}, {"measurement": "Average % control", "setting": "[1]; with DHT, 8 μM plumbagin", "result": 0.62, "unit": "%"}, {"measurement": "% control", "setting": "[1]; with DHT, 8 μM plumbagin, second experiment column", "result": 0.40, "unit": "%"}, {"measurement": "efficiency of combination of plumbagin with castration versus either treatment alone", "setting": "PTEN-P2/GFP tumor; plumbagin 1 mg/kg intraperitoneal once/day soon after surgical castration", "result": "more efficient in vivo than either treatment alone"}, {"measurement": "tumor size, castration with plumbagin", "setting": "PTEN-P2/GFP tumor; plumbagin 1 mg/kg ip once/day plus surgical castration", "result": "significant decreases in tumor size"}, {"measurement": "tumor size, plumbagin only", "setting": "PTEN-P2/GFP tumor; plumbagin 1 mg/kg ip once/day, no castration", "result": "did not lead to a marked decrease in tumor size"}, {"measurement": "ED50", "setting": "fibrosarcomas", "result": 0.75, "unit": "mg/kg body weight"}, {"measurement": "effect on hepatoma", "setting": "hepatoma", "result": "induced regression of hepatoma"}, {"measurement": "effect on growth and invasion of hormone-refractory prostate cancer", "setting": "[2]", "result": "inhibited growth and invasion of hormone-refractory prostate cancer"}, {"measurement": "IC50", "setting": "[3]", "result": 4.55, "unit": "µM"}, {"measurement": "viability at 1 µM", "setting": "[3]; 1 μM, medium with 10% FBS and DHT", "result": 94.6, "unit": "%"}, {"measurement": "viability at 2 µM", "setting": "[3]; 2 μM, medium with 10% FBS and DHT", "result": 90.9, "unit": "%"}, {"measurement": "viability at 3 µM", "setting": "[3]; 3 μM, medium with 10% FBS and DHT", "result": 88.9, "unit": "%"}, {"measurement": "viability at 4 µM", "setting": "[3]; 4 μM, medium with 10% FBS and DHT", "result": 73, "unit": "%"}, {"measurement": "viability at 5 µM", "setting": "[3]; 5 μM, medium with 10% FBS and DHT", "result": 32.9, "unit": "%"}, {"measurement": "viability at 7 µM", "setting": "[3]; 7 μM, medium with 10% FBS and DHT", "result": 0.4, "unit": "%"}, {"measurement": "viability at 10 µM", "setting": "[3]; 10 μM, medium with 10% FBS and DHT", "result": 0.6, "unit": "%"}]}
